Measurements taken from ChEMBL document CHEMBL1145395, “De novo design of selective antibiotic peptides by incorporation of unnatural amino acids” (J Med Chem, 2007).
Converted amounts (≈) assume the structure as drawn. The source made the active and inactive calls. The calls are words filed in the database; no cut-off is given here. Starred links: 1 amine or outer side, 2 acyl side, 3 side chain; linkers in the order of their positions; H or OH if unused. Non-standard residues stand in square brackets, D forms with d. Residues, ends and D or L forms follow the SMILES beside them. ξ: configuration not given here. *: point of attachment. Biotin = O=C1N[C@H]2[C@H](CS[C@H]2CCCCC(=O)*)N1; Pro(3ξ,4ξ-(CH2)4) = O=C(O)[C@H]1NCC2CCCCC21; Oic = O=C(O)[C@@H]1C[C@@H]2CCCC[C@@H]2N1; X1 = O=C([C@@H]1CN([*:1])C2CCCCC21)[*:2]; Phe(4-F) = N[C@@H](Cc1ccc(F)cc1)C(=O)O; Ethylenediamine = C(CN[*:2])N[*:1]; Tic = O=C(O)[C@@H]1Cc2ccccc2CN1; Dap = NC[C@H](N)C(=O)O; NH(CH2)3NH2 = NCCCN*; GABA = NCCCC(=O)O; βAla = NCCC(=O)O

Assays:
[1] = Toxicity to mouse RBC assessed as hemolytic activity at 100 uM; type: cell-based, Erythrocyte; conditions: red blood cells, read-out: Activity
[2] = Toxicity to mouse RBC assessed as hemolytic activity at 25 uM; type: cell-based, Erythrocyte; conditions: red blood cells, read-out: Activity
Bacillus subtilis = assay: Antibacterial activity against Bacillus subtilis ATCC 43223; type: functional
Mycobacterium = assay: Antibacterial activity against Mycobacterium ranae ATCC 110; type: functional
Salmonella typhimurium = assay: Antibacterial activity against Salmonella Typhimurium ATCC 13311; type: functional, Salmonella enterica subsp. enterica serovar Typhimurium; conditions: for MIC: Salmonella enterica
Staphylococcus aureus = assay: Antibacterial activity against methicillin/gentamicin/tetracycline resistant Staphylococcus aureus ATCC 33592; type: functional

Row | Compound | hemolysis at 100 µM [1] [%] | hemolysis at 25 µM [2] [%] | MIC (Bacillus subtilis) [µM] | MIC (Mycobacterium) [µM] | MIC (Salmonella typhimurium) [µM] | MIC (Staphylococcus aureus) [µM] | Activity (Salmonella typhimurium; Salmonella enterica subsp. enterica serovar Typhimurium)
1 | CC(=O)NCC(=O)N[C@@H](Cc1ccccc1)C(=O)N[C@@H](Cc1ccccc1)C(=O)N1CC2CCCCC2[C@H]1C(=O)NCC(=O)N[C@@H](CCCCN)C(=O)N[C@@H](Cc1ccccc1)C(=O)N1CC2CCCCC2[C@H]1C(=O)NCC(=O)N[C@@H](Cc1ccccc1)C(=O)N[C@@H](Cc1ccccc1)C(=O)N1CC2CCCCC2[C@H]1C(=O)NCC(=O)N[C@@H](CCCCN)C(=O)N[C@@H](Cc1ccccc1)C(=O)N[C@@H](CCCCN)C(=O)N[C@@H](CCCCN)C(=O)N[C@@H](CCCCN)C(=O)N[C@@H](CCCCN)C(N)=O (stereo partly drawn) (Ac-GFF[Pro(3ξ,4ξ-(CH2)4)]GKF[Pro(3ξ,4ξ-(CH2)4)]GFF[Pro(3ξ,4ξ-(CH2)4)]GKFKKKK-NH2) | 27.3 | 8.9 | – | – | – | – | –
2 | CC(=O)NCC(=O)N[C@@H](Cc1ccccc1)C(=O)N1Cc2ccccc2C[C@H]1C(=O)N1[C@H](C(=O)NCC(=O)N[C@@H](CCCCN)C(=O)N2Cc3ccccc3C[C@H]2C(=O)N2[C@H](C(=O)NCC(=O)N[C@@H](Cc3ccccc3)C(=O)N3Cc4ccccc4C[C@H]3C(=O)N3[C@H](C(=O)NCC(=O)N[C@@H](CCCCN)C(=O)N4Cc5ccccc5C[C@H]4C(=O)N[C@@H](CCCCN)C(=O)N[C@@H](CCCCN)C(=O)N[C@@H](CCCCN)C(=O)N[C@@H](CCCCN)C(=O)NCCN)C[C@@H]4CCCC[C@@H]43)C[C@@H]3CCCC[C@@H]32)C[C@@H]2CCCC[C@@H]21 (Ac-GF[Tic][Oic]GK[Tic][Oic]GF[Tic][Oic]GK[Tic]KKKK-Ethylenediamine) | – | – | 1 (≈ 2.48 µg/mL) | 10 (≈ 24.8 µg/mL) | 10 (≈ 24.8 µg/mL) | 3 (≈ 7.45 µg/mL) | –
3 | CC(=O)NCC(=O)N[C@@H](Cc1ccccc1)C(=O)N1Cc2ccccc2C[C@H]1C(=O)N1[C@H](C(=O)NCC(=O)N[C@@H](CCCCN)C(=O)N2Cc3ccccc3C[C@H]2C(=O)N2[C@H](C(=O)NCC(=O)N[C@@H](Cc3ccccc3)C(=O)N3Cc4ccccc4C[C@H]3C(=O)N3[C@H](C(=O)NCC(=O)N[C@@H](CCCCN)C(=O)N4Cc5ccccc5C[C@H]4C(=O)N[C@@H](CCCCN)C(=O)N[C@@H](CCCCN)C(=O)N[C@@H](CCCCN)C(=O)N[C@@H](CCCCN)C(=O)NCCCN)C[C@@H]4CCCC[C@@H]43)C[C@@H]3CCCC[C@@H]32)C[C@@H]2CCCC[C@@H]21 (Ac-GF[Tic][Oic]GK[Tic][Oic]GF[Tic][Oic]GK[Tic]KKKK-{NH(CH2)3NH2}) | – | – | 3 (≈ 7.49 µg/mL) | 10 (≈ 25 µg/mL) | 30 (≈ 74.9 µg/mL) | 10 (≈ 25 µg/mL) | –
4 | CC(=O)NCC(=O)N[C@@H](Cc1ccccc1)C(=O)N1Cc2ccccc2C[C@H]1C(=O)N1[C@H](C(=O)NCC(=O)N[C@@H](CN)C(=O)N2Cc3ccccc3C[C@H]2C(=O)N2[C@H](C(=O)NCC(=O)N[C@@H](Cc3ccccc3)C(=O)N3Cc4ccccc4C[C@H]3C(=O)N3[C@H](C(=O)NCC(=O)N[C@@H](CN)C(=O)N4Cc5ccccc5C[C@H]4C(=O)N[C@@H](CN)C(=O)N[C@@H](CN)C(=O)N[C@@H](CN)C(=O)N[C@@H](CN)C(N)=O)C[C@@H]4CCCC[C@@H]43)C[C@@H]3CCCC[C@@H]32)C[C@@H]2CCCC[C@@H]21 (Ac-GF[Tic][Oic]G[Dap][Tic][Oic]GF[Tic][Oic]G[Dap][Tic][Dap][Dap][Dap][Dap]-NH2) | – | – | 1 (≈ 2.19 µg/mL) | 100 (≈ 219 µg/mL) | 3 (≈ 6.57 µg/mL) | 10 (≈ 21.9 µg/mL) | –
5 | CC(=O)NCC(=O)N[C@@H](Cc1ccccc1)C(=O)N1Cc2ccccc2C[C@H]1C(=O)N1CC2CCCCC2[C@H]1C(=O)NCC(=O)N[C@@H](CCCCN)C(=O)N1Cc2ccccc2C[C@H]1C(=O)N1CC2CCCCC2[C@H]1C(=O)NCC(=O)N[C@@H](Cc1ccccc1)C(=O)N1Cc2ccccc2C[C@H]1C(=O)N1CC2CCCCC2[C@H]1C(=O)NCC(=O)N[C@@H](CCCCN)C(=O)N1Cc2ccccc2C[C@H]1C(=O)N[C@@H](CCCCN)C(=O)N[C@@H](CCCCN)C(=O)N[C@@H](CCCCN)C(=O)N[C@@H](CCCCN)C(=O)N[C@@H](CCCCN)C(N)=O (stereo partly drawn) (Ac-GF[Tic][Pro(3ξ,4ξ-(CH2)4)]GK[Tic][Pro(3ξ,4ξ-(CH2)4)]GF[Tic][Pro(3ξ,4ξ-(CH2)4)]GK[Tic]KKKKK-NH2) | – | – | 1 (≈ 2.57 µg/mL) | 3 (≈ 7.71 µg/mL) | 10 (≈ 25.7 µg/mL) | 3 (≈ 7.71 µg/mL) | –
6 | CC(=O)NCC(=O)N[C@@H](Cc1ccc(F)cc1)C(=O)N1Cc2ccccc2C[C@H]1C(=O)N1CC2CCCCC2[C@H]1C(=O)NCC(=O)N[C@@H](CCCCN)C(=O)N1Cc2ccccc2C[C@H]1C(=O)N1CC2CCCCC2[C@H]1C(=O)NCC(=O)N[C@@H](Cc1ccc(F)cc1)C(=O)N1Cc2ccccc2C[C@H]1C(=O)N1CC2CCCCC2[C@H]1C(=O)NCC(=O)N[C@@H](CCCCN)C(=O)N1Cc2ccccc2C[C@H]1C(=O)N[C@@H](CCCCN)C(=O)N[C@@H](CCCCN)C(=O)N[C@@H](CCCCN)C(=O)N[C@@H](CCCCN)C(N)=O (stereo partly drawn) (Ac-G[Phe(4-F)][Tic][Pro(3ξ,4ξ-(CH2)4)]GK[Tic][Pro(3ξ,4ξ-(CH2)4)]G[Phe(4-F)][Tic][Pro(3ξ,4ξ-(CH2)4)]GK[Tic]KKKK-NH2) | – | – | 0.3 (≈ 0.743 µg/mL) | 3 (≈ 7.43 µg/mL) | 30 (≈ 74.3 µg/mL) | 10 (≈ 24.8 µg/mL) | –
7 | CC(=O)NCCCC(=O)N[C@@H](Cc1ccccc1)C(=O)N1Cc2ccccc2C[C@H]1C(=O)N1[C@H](C(=O)NCCCC(=O)N[C@@H](CCCCN)C(=O)N2Cc3ccccc3C[C@H]2C(=O)N2[C@H](C(=O)NCCCC(=O)N[C@@H](Cc3ccccc3)C(=O)N3Cc4ccccc4C[C@H]3C(=O)N3[C@H](C(=O)NCCCC(=O)N[C@@H](CCCCN)C(=O)N4Cc5ccccc5C[C@H]4C(=O)N[C@@H](CCCCN)C(=O)N[C@@H](CCCCN)C(=O)N[C@@H](CCCCN)C(=O)N[C@@H](CCCCN)C(=O)N[C@@H](CCCCN)C(N)=O)C[C@@H]4CCCC[C@@H]43)C[C@@H]3CCCC[C@@H]32)C[C@@H]2CCCC[C@@H]21 (Ac-[GABA]F[Tic][Oic][GABA]K[Tic][Oic][GABA]F[Tic][Oic][GABA]K[Tic]KKKKK-NH2) | – | – | 1 (≈ 2.68 µg/mL) | 3 (≈ 8.04 µg/mL) | 10 (≈ 26.8 µg/mL) | 30 (≈ 80.4 µg/mL) | –
8 | CC(=O)NCCC(=O)N[C@@H](Cc1ccc(F)cc1)C(=O)N1Cc2ccccc2C[C@H]1C(=O)N1CC2CCCCC2[C@H]1C(=O)NCCC(=O)N[C@@H](CN)C(=O)N1Cc2ccccc2C[C@H]1C(=O)N1CC2CCCCC2[C@H]1C(=O)NCCC(=O)N[C@@H](Cc1ccc(F)cc1)C(=O)N1Cc2ccccc2C[C@H]1C(=O)N1CC2CCCCC2[C@H]1C(=O)NCCC(=O)N[C@@H](CN)C(=O)N1Cc2ccccc2C[C@H]1C(=O)N[C@@H](CN)C(=O)N[C@@H](CN)C(=O)N[C@@H](CN)C(=O)N[C@@H](CN)C(N)=O (stereo partly drawn) (Ac-[βAla][Phe(4-F)][Tic][Pro(3ξ,4ξ-(CH2)4)][βAla][Dap][Tic][Pro(3ξ,4ξ-(CH2)4)][βAla][Phe(4-F)][Tic][Pro(3ξ,4ξ-(CH2)4)][βAla][Dap][Tic][Dap][Dap][Dap][Dap]-NH2) | – | – | 0.3 (≈ 0.684 µg/mL) | 100 (≈ 228 µg/mL) | 3 (≈ 6.84 µg/mL) | 30 (≈ 68.4 µg/mL) | –
9 | NCCCC[C@H](NC(=O)[C@H](CCCCN)NC(=O)[C@H](CCCCN)NC(=O)[C@H](CCCCN)NC(=O)[C@@H]1Cc2ccccc2CN1C(=O)[C@H](CCCCN)NC(=O)CNC(=O)[C@@H]1C[C@@H]2CCCC[C@@H]2N1C(=O)[C@@H]1Cc2ccccc2CN1C(=O)[C@H](Cc1ccccc1)NC(=O)CNC(=O)[C@@H]1C[C@@H]2CCCC[C@@H]2N1C(=O)[C@@H]1Cc2ccccc2CN1C(=O)[C@H](CCCCN)NC(=O)CNC(=O)[C@@H]1C[C@@H]2CCCC[C@@H]2N1C(=O)[C@@H]1Cc2ccccc2CN1C(=O)[C@H](Cc1ccccc1)NC(=O)CNC(=O)CCCC[C@@H]1SC[C@@H]2NC(=O)N[C@@H]21)C(N)=O (Biotin-GF[Tic][Oic]GK[Tic][Oic]GF[Tic][Oic]GK[Tic]KKKK-NH2) | – | – | 1 (≈ 2.63 µg/mL) | 10 (≈ 26.3 µg/mL) | 30 (≈ 78.8 µg/mL) | 3 (≈ 7.88 µg/mL) | –
10 | NCCCC[C@H](NC(=O)[C@H](CCCCN)NC(=O)[C@H](CCCCN)NC(=O)[C@H](CCCCN)NC(=O)[C@@H]1Cc2ccccc2CN1C(=O)[C@H](CCCCN)NC(=O)CNC(=O)[C@@H]1C[C@@H]2CCCC[C@@H]2N1C(=O)[C@@H]1Cc2ccccc2CN1C(=O)[C@H](Cc1ccccc1)NC(=O)CNC(=O)[C@@H]1C[C@@H]2CCCC[C@@H]2N1C(=O)[C@@H]1Cc2ccccc2CN1C(=O)[C@H](CCCCN)NC(=O)CNC(=O)[C@@H]1C[C@@H]2CCCC[C@@H]2N1C(=O)[C@@H]1Cc2ccccc2CN1C(=O)[C@H](Cc1ccccc1)NC(=O)CN)C(N)=O (H-GF[Tic][Oic]GK[Tic][Oic]GF[Tic][Oic]GK[Tic]KKKK-NH2) | – | – | 1 (≈ 2.4 µg/mL) | 10 (≈ 24 µg/mL) | 3 (≈ 7.2 µg/mL) | 10 (≈ 24 µg/mL) | –
11 | CC(C)C[C@H](NC(=O)[C@@H](N)CCCCN)C(=O)N1Cc2ccccc2C[C@H]1C(=O)N1C[C@@H](C(=O)N[C@@H](CCCCN)C(=O)N2Cc3ccccc3C[C@H]2C(=O)N2C[C@@H](C(=O)N[C@@H](Cc3ccccc3)C(=O)N3Cc4ccccc4C[C@H]3C(=O)N3C[C@@H](C(=O)N[C@@H](CCCCN)C(=O)N4Cc5ccccc5C[C@H]4C(=O)N4C[C@@H](C(=O)N[C@@H](Cc5ccccc5)C(=O)N5Cc6ccccc6C[C@H]5C(=O)N5C[C@@H](C(=O)N[C@@H](CCCCN)C(=O)N6Cc7ccccc7C[C@H]6C(=O)N6C[C@@H](C(=O)N[C@@H](CCCCN)C(=O)N[C@@H](CCCNC(=N)N)C(N)=O)C7CCCCC76)C6CCCCC65)C5CCCCC54)C4CCCCC43)C3CCCCC32)C2CCCCC21 (stereo partly drawn) (H-KL[Tic][X1]K[Tic][X1]F[Tic][X1]K[Tic][X1]F[Tic][X1]K[Tic][X1]KR-NH2) | 63 | – | 1 (≈ 3.08 µg/mL) | 30 (≈ 92.5 µg/mL) | – | 10 (≈ 30.8 µg/mL) | inactive
